This is an account of results in patent US6562584B1, “Bacterial strains for the production of 2-keto-L-gulonic acid” (priority 1998, dated 2003).

One experiment relates to mouse astrogial cells.
Assay: not given
As to conditions: Bishop et al., Nutrition Reviews 56:287-293 (1998); cited from earlier work.
With `O=C(O)c1cc(C(=O)O)c2c(n1)C(=O)C(=O)c1cc(C(=O)O)[nH]c1-2` [PQQ, 2,7,9-tricarboxy-1H-pyrrolo[2,3-f]quino-line-4,5-dione], the “nerve growth factor synthesis” value is “increases”.

For the next experiment, the system named is strains NRRL B-30035, NRRL B-30037N, and NRRL B-30036. The experiment is described as follows: Antibiotic resistance by minimum inhibitory concentration (MIC), commercial "Pasco" system. The format is cell-based. As to conditions: strains NRRL B-30035 (ADM 291-19), NRRL B-30037N (ADM 62A-12A), NRRL B-30036 (ADM 266-13B), based on physiologically attainable concentrations of antibiotic. An excerpt:
(6) Antibiotic resistance—sensitive to amikacin, augmentin (amoxicillin plus clavulonic acid), ampicillin, cefazolin, cefoxitin, ceftazidime, ceftiofur, cephalothin, enrofloxacin, florfenicol, gentamicin, imipenem, kanamycin, sarafloxicin, tetracycline, ticarcillin, and tilmicosin, but resistant to tribrissen ([…] plus sulfamethozole), as determined by minimum inhibitory concentration (MIC), based on physiologically attainable concentrations of antibiotic, employing the commercial “Pasco” system; and […]
Regarding `NCC[C@H](O)C(=O)N[C@@H]1C[C@H](N)[C@@H](O[C@H]2O[C@H](CN)[C@@H](O)[C@H](O)[C@H]2O)[C@H](O)[C@H]1O[C@H]1O[C@H](CO)[C@@H](O)[C@H](N)[C@H]1O` [amikacin], the “Antibiotic resistance (sensitive / resistant) as determined by minimum inhibitory concentration (MIC)” value is reported as “sensitive”.

On to `CC1(C)S[C@@H]2[C@H](NC(=O)[C@H](N)c3ccccc3)C(=O)N2[C@H]1C(=O)O` [ampicillin], for which the “Antibiotic resistance (sensitive / resistant) as determined by minimum inhibitory concentration (MIC)” value is on record as “sensitive”. As to `Cc1nnc(SCC2=C(C(=O)O)N3C(=O)[C@@H](NC(=O)Cn4cnnn4)[C@H]3SC2)s1` [cefazolin], the “Antibiotic resistance (sensitive / resistant) as determined by minimum inhibitory concentration (MIC)” value was “sensitive”.

Regarding `CO[C@@]1(NC(=O)Cc2cccs2)C(=O)N2C(C(=O)O)=C(COC(N)=O)CS[C@@H]21` [cefoxitin], the “Antibiotic resistance (sensitive / resistant) as determined by minimum inhibitory concentration (MIC)” value was “sensitive”. For the molecule `CC(C)(O/N=C(\C(=O)N[C@@H]1C(=O)N2C(C(=O)[O-])=C(C[n+]3ccccc3)CS[C@H]12)c1csc(N)n1)C(=O)O` [ceftazidime], the “Antibiotic resistance (sensitive / resistant) as determined by minimum inhibitory concentration (MIC)” value is “sensitive”. Regarding `CO/N=C(\C(=O)N[C@@H]1C(=O)N2C(C(=O)O)=C(CSC(=O)c3ccco3)CS[C@H]12)c1csc(N)n1` [ceftiofur], the “Antibiotic resistance (sensitive / resistant) as determined by minimum inhibitory concentration (MIC)” value is recorded as “sensitive”. The same measure, in the same setting: the result for `CC(=O)OCC1=C(C(=O)O)N2C(=O)[C@@H](NC(=O)Cc3cccs3)[C@H]2SC1` [cephalothin] reads “sensitive”; that for `CCN1CCN(c2cc3c(cc2F)c(=O)c(C(=O)O)cn3C2CC2)CC1` [enrofloxacin], “sensitive”; that for `CS(=O)(=O)c1ccc([C@@H](O)[C@@H](CF)NC(=O)C(Cl)Cl)cc1` [florfenicol], “sensitive”. Same read-out and setting: then `O=C(O)c1cn(-c2ccc(F)cc2)c2cc(N3CCNCC3)c(F)cc2c1=O` [sarafloxicin], with “sensitive”; and `CC1(C)S[C@@H]2[C@H](NC(=O)[C@H](C(=O)O)c3ccsc3)C(=O)N2[C@H]1C(=O)O` [ticarcillin], with “sensitive”.

For `CC[C@H]1OC(=O)C[C@@H](O)[C@H](C)[C@@H](O[C@@H]2O[C@H](C)[C@@H](O)[C@H](N(C)C)[C@H]2O)[C@@H](CCN2C[C@H](C)C[C@H](C)C2)C[C@@H](C)C(=O)/C=C/C(C)=C/[C@@H]1CO[C@@H]1O[C@H](C)[C@@H](O)[C@@H](OC)[C@H]1OC` [tilmicosin], the “Antibiotic resistance (sensitive / resistant) as determined by minimum inhibitory concentration (MIC)” value is reported as “sensitive”.

Regarding gentamicin, the “Antibiotic resistance (sensitive / resistant) as determined by minimum inhibitory concentration (MIC)” value was “sensitive”.
